Results from publication PMC8477953, “Carnitine is a pharmacological allosteric chaperone of the human lysosomal α-glucosidase” (Journal of Enzyme Inhibition and Medicinal Chemistry, 2021).

Tests used:
Format in all cases: binding
[1] = target: T1, lysosomal acid α-glucosidase (rhGAA) (Homo sapiens, UniProt P10253); assay: DSF thermal shift at […], pH […]; details: read-out: delta_Tm
T1 construct: gene GAA; recombinant human GAA (Myozyme)

[2] = target: T1, lysosomal acid α-glucosidase (rhGAA); assay: DSF thermal shift at […], pH […]; details: read-out: delta_Tm; remark: listed apart in the source
[3] = target: T1, lysosomal acid α-glucosidase (rhGAA); assay: DSF (SYPRO Orange) titration at pH […] with Kd from cooperative model fit
[4] = target: T1, lysosomal acid α-glucosidase (rhGAA); assay: DSF thermal shift, dose-dependent; rescue of rhGAA activity at pH […]; details: read-out: delta_Tm

With `OC[C@H]1NC[C@H](O)[C@@H](O)[C@@H]1O` [compound 1, DNJ] the ΔTm at 100 µM [1] was 12.1 °C.

Molecule `CC(=O)N[C@@H](CS)C(=O)O` [compound 3, N-acetylcysteine] has a ΔTm at 10000 µM [2] of 9.6 ± 0.2 °C.

Work on `C[N+](C)(C)C[C@H](O)CC(=O)[O-]` [compound 6, L-carnitine] yielded a Kd [3] of 9.16 ± 1.02 mM.

For `C[N+](C)(C)C[C@@H](O)CC(=O)[O-]` [compound 7, D-carnitine], the ΔTm at 5000 µM [4] was 4.9 ± 0.1 °C.
